The subject of test [1] is PC export transport activity. The test can be described thus: Inhibition of PC export transport activity in rat hepatocytes (d9-choline, taurocholic acid, LC/MS/MS). Type of test: cell-based. As to conditions: Hepatocyte, 100 μg/mL d9-choline, 5 mM taurocholic acid, 2 hours; for inhibition at 1 µM: drug 1 μM; for inhibition at 10 µM: drug 10 μM; for inhibition at 100 µM: drug 100 μM. The procedure:
(§1) The effect of a test agent in terms of percentage (%) of inhibition on PC export transport and/or formation activity is determined by the following equation: […]
(§2) Fifty mL InVitroGRO HT medium was pre-warmed in a 37° C. water bath. A vial of hepatocyte was removed from a liquid N2 tank and quickly warmed in a 37° C. water bath by holding in hand with slow rotation. As soon as the edge of the frozen cells was separated from the wall of the vial, the frozen cells were poured into the pre-warmed HT medium and the remaining cells in the vial were collected using pipette. The tube was centrifuged at 50 g, 25° C. for 5 minutes, the supernatant was removed and the cell pellet was re-suspended in 8 mL of pre-warmed Williams E buffer, the cell numbers were counted in a hemocytometer. […] The cells were counted in 0.4% Trypan blue (80 μL Williams E buffer+10 μL Trypan blue stock+10 μL cells). The hepatocyte concentration was adjusted with Williams E buffer to meet the objectives of various experiments.
(§3) LC/MS/MS assays: Liquid chromatography was carried out using a Shimadzu (Columbia, Md.) HPLC system consisting of an SCL-10 Avp system controller, two LC-10 ADvp pumps, a CTC HTC PAL autosampler, a Shimadzu SPD-10 ADvp UV detector and an automated switching valve. The switching valve was used to divert the column effluent to either waste or to the MS instrument. The Shimadzu HPLC system was used for sample injection and analyte separation. Each sample was loaded onto a reverse phase column, Phenomenex (Torrance, Calif.) Luna C85μ2 mm×50 mm. The column chamber's temperature was ambient. The initial HPLC mobile phase conditions used for separation and elution of analytes comprised 50% acetonitrile in water containing 0.1% formic acid (A) and isopropanol:acetonitrile (9:1) (B). The flow rate was 0.5 mL/min. The amount of B in the mobile phase was ramped linearly up to 62% over a 0.5-minute period followed by a slow increase to 63% B in 4.5 minutes, then a rapid increase to 95% B in 0.1 min. After holding at 95% B for 2.3 minutes, the mobile phase was reset to the initial conditions in 0.1 minute. The analytical column was equilibrated with the starting mobile phase for 2.5 minutes. The total run time for each sample analysis was approximately 10 minutes.
(§4) The HPLC elute was injected into an AB Sciex AP14000 LC/MS/MS system (Framingham, Mass.) equipped with a Turbo IonSpray source set with a desolvation temperature of 450° C. Nitrogen was used as curtain gas, nebulizer gas, heater gas, and collision gas. Data for PC was acquired in the positive ion mode using multiple reaction monitoring methods (MRM). The ion transitions of the MRM method for specific detection of PC species were developed in standard fashion. Ionspray voltage was set at 4000 V and the collision gas (CAD) set at 6. Declustering potential and collision energy was set at 50 and 42 respectively for PC. The PC species were monitored using the following transitions: 768→193, 770→193, 796→193, 798→193, 792→193, 794→193, 816→193. (S)-(+)-Methyl 2-(4,5,6,7-tetrahydrothieno[3,2-c]pyridin-5-yl)-2-(2-chlorophenyl)acetate hydrogensulfate was used as an internal standard with the following ion transition: 322.2→152.1. Propane-1-sulfonic acid {3-[5-(4-chlorophenyl)-1H-pyrrolo[2,3-b]pyridine-3-carbonyl]-2,4difluoro-phenyl}-amide was also used as an internal standard with the following ion transition: 490.1→383.1.
(§5) Data analysis: Extracellular concentrations of PC were determined by LC/MS/MS MRM analysis of the 4000 RPM supernatant fractions post-incubation. Cellular concentrations of PC were determined by LC/MS/MS MRM of the extracts of hepatocytes post incubation. PC export transport and/or formation activity and test agent percent inhibition were calculated using the following equations: […]

For test [2], the system named is PC export transport activity. The experiment in a line: Inhibition of PC export transport activity in human hepatocytes (d9-choline, taurocholic acid, LC/MS/MS). It is filed as cell-based. As to conditions: Hepatocyte, 100 μg/mL d9-choline, 5 mM taurocholic acid, 2 hours; for inhibition at 1 µM: drug 1 μM; for inhibition at 10 µM: drug 10 μM; for inhibition at 100 µM: drug 100 μM. The procedure: as §1, §2, §3, §4, §5

What is called inhibition is the drop in the measured response relative to a control, in per cent. With `O=C(O)CCCC[C@@H]1SC[C@@H]2NC(=O)N[C@@H]21` [Biotin, biotin], in test [1], the inhibition at 1 µM was ≤ 30%, the inhibition at 10 µM was ≤ 30% and the inhibition at 100 µM is ≤ 30%. Also, in test [2], the inhibition at 1 µM is ≤ 30%, the inhibition at 10 µM was ≤ 30% and the inhibition at 100 µM was ≤ 30%.
Regarding `CN(C)CCCN1c2ccccc2Sc2ccc(Cl)cc21` [Chlorpromazine, chlorpromazine], in test [1], the inhibition at 1 µM is 30 to 70%, the inhibition at 10 µM was ≥ 70% and the inhibition at 100 µM was ≥ 70%. Besides, in test [2], the inhibition at 1 µM is ≤ 30%, the inhibition at 10 µM was 30 to 70% and the inhibition at 100 µM was ≥ 70%.
For `Clc1ccccc1C(c1ccccc1)(c1ccccc1)n1ccnc1` [Clotrimazole, clotrimazole], in test [1], the inhibition at 1 µM was ≤ 30%, the inhibition at 10 µM is ≤ 30% and the inhibition at 100 µM was ≥ 70%.
Regarding `COC1=CC(=O)C[C@@H](C)[C@]12Oc1c(Cl)c(OC)cc(OC)c1C2=O` [Griseofulvin, griseofulvin], in test [1], the inhibition at 1 µM was ≤ 30%, the inhibition at 10 µM is 30 to 70% and the inhibition at 100 µM was ≥ 70%.
As to `CC(=O)N1CCN(c2ccc(OCC3COC(Cn4ccnc4)(c4ccc(Cl)cc4Cl)O3)cc2)CC1` (stereo not drawn) [Ketoconazole, ketoconazole], in test [1], the inhibition at 1 µM is 30 to 70%, the inhibition at 10 µM fell in the range of 30 to 70% and the inhibition at 100 µM was ≥ 70%. Moreover, in test [2], the inhibition at 1 µM was ≤ 30%, the inhibition at 10 µM was in the range of 30 to 70% and the inhibition at 100 µM is ≥ 70%.
Consider `CC(C)(S)[C@@H](N)C(=O)O` [Penicillamine, penicillamine], for which, in test [2], the inhibition at 1 µM is ≤ 30%, the inhibition at 10 µM was ≤ 30% and the inhibition at 100 µM was ≤ 30%.
Regarding `CC1=C(CC(=O)O)c2cc(F)ccc2/C1=C\c1ccc([S+](C)[O-])cc1` (stereo not drawn) [Sulindac, sulindac], in test [1], the inhibition at 1 µM was ≤ 30%, the inhibition at 10 µM was in the range of 30 to 70% and the inhibition at 100 µM was ≥ 70%.
With `Cc1c(C)c2c(c(C)c1O)CCC(C)(COc1ccc(CC3SC(=O)NC3=O)cc1)O2` (stereo not drawn) [Troglitazone, troglitazone], in test [2], the inhibition at 1 µM is ≤ 30%, the inhibition at 10 µM fell in the range of 30 to 70% and the inhibition at 100 µM was ≥ 70%.

(Values after patent US10280401B2, “Method of measuring inhibition of phosphatidylcholine export transport and/or formation activity” (Biotranex, LLC, priority 2015, dated 2019).)
